Measurements from publication PMC9081267 (Nature microbiology, 2022).

Target: T1, bovine pancreatic trypsin (Bos taurus, UniProt P00760)
T1 sequence (P00760 24-246): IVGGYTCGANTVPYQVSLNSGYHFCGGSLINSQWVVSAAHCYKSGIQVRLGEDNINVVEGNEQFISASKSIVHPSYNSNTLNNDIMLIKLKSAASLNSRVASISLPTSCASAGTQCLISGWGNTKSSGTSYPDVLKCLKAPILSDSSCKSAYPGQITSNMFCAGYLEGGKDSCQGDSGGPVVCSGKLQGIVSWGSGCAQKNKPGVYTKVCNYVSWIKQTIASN
Test: fluorogenic AMC substrate hydrolysis, kinetic read, non-linear regression
Assay type: biochemical

SMILES	IC50 [µM]
C=CC1=C(C)/C(=C/C2=NC(=C\c3[nH]c(/C=C4\NC(=O)C(C)=C4C=C)c(C)c3CCC(=O)O)/C(CCC(=O)O)=C2C)NC1=O [Biliverdin]	12.7
CCC1=C(C)/C(=C/c2[nH]c(Cc3[nH]c(/C=C4\NC(=O)C(C)=C4CC)c(C)c3CCC(=O)O)c(CCC(=O)O)c2C)NC1=O [Mesobilirubin]	3.86
CCC1=C(C)C(Cc2[nH]c(Cc3[nH]c(CC4NC(=O)C(C)=C4CC)c(C)c3CCC(=O)O)c(CCC(=O)O)c2C)NC1=O (stereo not shown) [Urobilinogen]	4.83
C=CC1=C(C)/C(=C/c2[nH]c(Cc3[nH]c(/C=C4\NC(=O)C(C)=C4C=C)c(C)c3CCC(=O)O)c(CCC(=O)O)c2C)NC1=O [Unconjugated Bilirubin]	3.48
